From patent US8101211B2, “Compositions for retarding skin aging” (Kabushiki Kaisha Yakult Honsha, priority 2000, dated 2012) come the findings set out here.

In general, IC50 refers to the concentration that gives 50% inhibition.

A short description of assay [1]: DPPH radical-capturing activity. The note with it: concentration at which DPPH radical scavenging is 50%. The source says: [table] […] The extent of activity was expressed in terms of DPPH Radial Scavenging (%) calculated according to the following formula: DPPH Radial Scavenging (%)=(A−B)/A×100 where A: absorbance without addition of sample, B: absorbance with addition of sample. […]
On the technique in general: Loss of DPPH colour is used to gauge radical scavenging.

Assay [2] concerns B16 mouse melanoma cells (B16-F1 cells, ATCC No. CRL-6323). The assay can be described thus: Melanin formation-inhibiting test (extracellular melanin, 96-well plate method). The note with it: for IC50: Mus musculus, extracellular melanin, B16-F1 cells, read-out: Melanin formation inhibition IC50; for Melanin formation inhibition, % Inhibition at 0.001%: test concentration 0.001%, 3 days, theophylline 0.5 mM. Format: cell-based. As to the method: Measurements were made by the 96-well plate method using […] mouse melanoma cells (B16-F1 cells, ATCC No. CRL-6323) purchased from Dainippon Pharmaceutical. The cells (1×10^4) were sowed into each well and cultured in 10% FCS- and 1% antibiotic-containing D-MEM for 24 hours (37° C., 5% CO2), the medium was then replaced with D-MEM supplemented with the test substance and theophylline (0.5 mM), and cultivation was further continued for 3 days. The solvent (ethanol) for the test substance was added to the medium in a final concentration of 1%. An equal volume of HEPES buffer (pH 6.8)/ethanol (9:1) was added to the culture supernatant obtained by centrifugation and the absorbance at 475 nm to 660 nm was measured on the microplate reader EL-340 (BIO-TEK INSTRUMENT), and the melanin formation-inhibiting activity was evaluated in terms of the amount of extracellular melanin.

In brackets after ≈: the same amount, converted by molar mass.

For `N[C@@H](CCC(=O)N[C@@H](CS)C(=O)NCC(=O)O)C(=O)O` [Glutathione], the “DPPH radical scavenging IC50” value in assay [1] came out at 13.5 µg/mL.
In the case of `O=c1cc(CO)occ1O` [Kojic acid], in assay [2], the 50% inhibitory concentration (IC50) came out at 12.9 µg/mL (≈ 90.8 µM) and the “Melanin formation inhibition, % Inhibition at 0.001%” value is 25.7%.
As to `O=C1O[C@H]([C@@H](O)CO)C(O)=C1O` [Ascorbic acid], the “DPPH radical scavenging IC50” value in assay [1] was found to be 4.1 µg/mL.
For the compound `OC[C@H]1O[C@@H](Oc2ccc(O)cc2)[C@H](O)[C@@H](O)[C@@H]1O` [Arbutin], in assay [2], the IC50 turned out to be 12.1 µg/mL (≈ 44.4 µM) and the “Melanin formation inhibition, % Inhibition at 0.001%” value came to 32.4%.
